In ChEMBL document CHEMBL1201862, “PubChem BioAssay data set” (2004):
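Interpolation was linear, between the two tested concentrations surrounding the appropriate level; five concentrations were tested over 48 hours in 96-well plates. Here, GI50 denotes the concentration required for 50% inhibition of growth.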 Calls of active or inactive are those of the source. No stated cut-off is given here; in the data, active = GI50 up to about 1.1 µM and inactive = higher.

How the values were obtained:
Assay in all cases: DTP human tumour cell line panel, 48 h
[1] = tested on: SF-268
[2] = tested on: HT-29
[3] = tested on: SF-539
[4] = tested on: HOP-92
[5] = tested on: OVCAR-5
[6] = tested on: MCF7
[7] = tested on: IGROV-1
[8] = tested on: PC-3
[9] = tested on: NCI-H23
[10] = tested on: UO-31
[11] = tested on: UACC-62
[12] = tested on: SN12C
[13] = tested on: SK-MEL-5
[14] = tested on: K562
[15] = tested on: HCC 2998
[16] = tested on: SW-620
[17] = tested on: OVCAR-8
[18] = tested on: TK-10
[19] = tested on: CCRF-CEM
[20] = tested on: OVCAR-4
[21] = tested on: DU-145
[22] = tested on: 786-0
[23] = tested on: SR
[24] = tested on: SNB-19
[25] = tested on: MDA-MB-231
[26] = tested on: ACHN
[27] = tested on: HCT-15
[28] = tested on: CAKI-1
[29] = tested on: OVCAR-3
[30] = tested on: HL-60
[31] = tested on: MDA-MB-435
[32] = tested on: Malme-3M
[33] = tested on: A549
[34] = tested on: HCT-116
[35] = tested on: U-251
[36] = tested on: HOP-62
[37] = tested on: Hs-578T
[38] = tested on: NCI-H460
[39] = tested on: EKVX
[40] = tested on: SF-295
[41] = tested on: M14
[42] = tested on: NCI-H226
[43] = tested on: UACC-257
[44] = tested on: A498
[45] = tested on: T47D
[46] = tested on: COLO 205
[47] = tested on: NCI/ADR-RES
[48] = tested on: KM12
[49] = tested on: RXF 393
[50] = tested on: NCI-H522
[51] = tested on: SK-MEL-2
[52] = tested on: SNB-75
[53] = tested on: SK-OV-3
[54] = tested on: BT-549
[55] = tested on: RPMI-8226
[56] = tested on: MOLT-4
[57] = tested on: SK-MEL-28
[58] = tested on: LOX IMVI
[59] = tested on: MDA-N

In the case of `N#Cc1c2c(c(Nc3ccc(Cl)cc3)n3c1nc1ccccc13)CCCC2`, the GI50 [1] is reported as 44 µM (inactive), the GI50 [2] is reported as 18.5 µM (inactive) and the GI50 [3] is reported as 21.1 µM (inactive). The GI50 [4] was > 37.4 µM (inactive), the GI50 [5] was > 100 µM (inactive) and the GI50 [6] was 7.59 µM (inactive). The GI50 [7] was 47.4 µM (inactive), the GI50 [8] was 7.06 µM (inactive) and the GI50 [9] was > 71.3 µM (inactive). For the same compound, the GI50 [10] was > 51.2 µM (inactive), the GI50 [11] was > 100 µM (inactive) and the GI50 [12] was 65.9 µM (inactive). The GI50 [13] was 20.5 µM (inactive), the GI50 [14] was 4.46 µM (inactive) and the GI50 [15] was 32.9 µM (inactive). The GI50 [16] was > 61 µM (inactive), the GI50 [17] was 37.6 µM (inactive) and the GI50 [18] was 53.1 µM (inactive). For the same compound, the GI50 [19] was 34.6 µM (inactive), the GI50 [20] was 16.2 µM (inactive) and the GI50 [21] was > 69.2 µM (inactive). The GI50 [22] was 26.9 µM (inactive), the GI50 [23] was 17 µM (inactive) and the GI50 [24] was 23.1 µM (inactive). For the same compound, the GI50 [25] was > 86.9 µM (inactive), the GI50 [26] was 18.6 µM (inactive) and the GI50 [27] was 25.9 µM. The GI50 [28] was 36.5 µM (inactive), the GI50 [29] was 13.4 µM (inactive) and the GI50 [30] was 7.03 µM (inactive). For the same compound, the GI50 [31] was > 100 µM (inactive), the GI50 [32] was > 67.6 µM (inactive) and the GI50 [33] was 43 µM (inactive). The GI50 [34] was 8.65 µM (inactive), the GI50 [35] was 18.5 µM (inactive) and the GI50 [36] was 31.2 µM (inactive). The GI50 [37] was 26.2 µM (inactive), the GI50 [38] was 14.8 µM (inactive) and the GI50 [39] was 48.3 µM (inactive). For the same compound, the GI50 [40] was 28.5 µM (inactive), the GI50 [41] was > 83.2 µM (inactive) and the GI50 [42] was > 64.3 µM (inactive). For the same compound, the GI50 [43] was 48 µM (inactive), the GI50 [44] was > 94.6 µM (inactive) and the GI50 [45] was 33.1 µM (inactive). The GI50 [46] was 37.9 µM (inactive), the GI50 [47] was 44.1 µM (inactive) and the GI50 [48] was 20.3 µM (inactive). The GI50 [49] was 33.7 µM (inactive), the GI50 [50] was 17.5 µM (inactive) and the GI50 [51] was > 63.8 µM (inactive). For the same compound, the GI50 [52] was 28.7 µM (inactive), the GI50 [53] was 54.7 µM (inactive) and the GI50 [54] was > 70.1 µM (inactive). The GI50 [55] was 4.75 µM (inactive), the GI50 [56] was 3.18 µM (inactive) and the GI50 [57] was > 76 µM (inactive). For the same compound, the GI50 [58] was > 63.5 µM (inactive).

`Cc1ccc2c(c1)C(=O)C1(Cc3ccccc3C1=O)C2` (centres undefined) was tested, and the GI50 [1] was > 100 µM (inactive), the GI50 [2] was > 100 µM (inactive) and the GI50 [3] was > 100 µM (inactive). For the same compound, the GI50 [4] was 30.1 µM (inactive), the GI50 [5] was > 100 µM (inactive) and the GI50 [6] was > 100 µM (inactive). The GI50 [7] was > 100 µM (inactive), the GI50 [59] was > 100 µM (inactive) and the GI50 [8] was > 100 µM (inactive). The GI50 [9] was > 100 µM (inactive), the GI50 [10] was 1.86 µM (inactive) and the GI50 [11] was 28.9 µM (inactive). The GI50 [12] was > 100 µM (inactive), the GI50 [13] was > 100 µM (inactive) and the GI50 [14] was > 100 µM (inactive). For the same compound, the GI50 [15] was > 100 µM (inactive), the GI50 [16] was > 100 µM (inactive) and the GI50 [17] was > 100 µM (inactive). The GI50 [18] was > 100 µM (inactive), the GI50 [19] was > 100 µM (inactive) and the GI50 [20] was > 100 µM (inactive). For the same compound, the GI50 [21] was > 100 µM (inactive), the GI50 [22] was > 100 µM (inactive) and the GI50 [23] was > 100 µM (inactive). For the same compound, the GI50 [24] was > 100 µM (inactive), the GI50 [25] was > 100 µM (inactive) and the GI50 [26] was > 100 µM (inactive). The GI50 [27] was greater than 100 µM, the GI50 [29] was > 100 µM (inactive) and the GI50 [30] was > 100 µM (inactive). For the same compound, the GI50 [31] was > 100 µM (inactive), the GI50 [32] was > 100 µM (inactive) and the GI50 [33] was > 100 µM (inactive). The GI50 [34] was > 100 µM (inactive), the GI50 [35] was > 100 µM (inactive) and the GI50 [36] was 47 µM (inactive). For the same compound, the GI50 [37] was > 100 µM (inactive), the GI50 [38] was > 100 µM (inactive) and the GI50 [39] was > 100 µM (inactive). For the same compound, the GI50 [40] was > 100 µM (inactive), the GI50 [41] was > 100 µM (inactive) and the GI50 [42] was > 100 µM (inactive). For the same compound, the GI50 [43] was > 100 µM (inactive), the GI50 [44] was > 100 µM (inactive) and the GI50 [45] was > 100 µM (inactive). The GI50 [46] was > 100 µM (inactive), the GI50 [47] was > 100 µM (inactive) and the GI50 [48] was > 100 µM (inactive). For the same compound, the GI50 [49] was 47 µM (inactive), the GI50 [50] was > 100 µM (inactive) and the GI50 [52] was 67.1 µM (inactive). The GI50 [53] was 31.2 µM (inactive), the GI50 [55] was > 100 µM (inactive) and the GI50 [56] was > 100 µM (inactive). The GI50 [57] was > 100 µM (inactive) and the GI50 [58] was > 100 µM (inactive).
